Test results reported in patent publication US20260335446A1, “TETRAZINE-BASED TARGETING AGENTS FOR IN VIVO DELIVERY OF A PAYLOAD” (Tambo, Inc., priority 2023, published 2026).

Assay: LC-MS quantification of conversion of protodrug in presence of Compound 111 in rat plasma-EDTA
Conditions: FIG. 2, 37° C., Compound 111 100 μg/mL, protodrug 250 ng/mL
Procedure: Liquid chromatography-mass spectrometry (LC-MS) was used to quantify the conversion of Compound B protodrug to MMAE and Compound F to exatecan in the presence of Compound 111. Compound 111 (100 μg/mL) was added to rat plasma-EDTA and incubated at 37° C. The protodrugs, Compound B and Compound F, were added to the plasma with the final concentration of 250 ng/mL. At each time point, triplicate aliquots were transferred to a plate with various pH extraction conditions and precipitated with acetonitrile for Compound B/MMAE or methanol for Compound F/exatecan. LC-MS/MS analyzed the extracted samples with the instrument methods previously established for each analyte. The conversion percentage was calculated based on the initial concentration of protodrugs and the formation of exatecan and MMAE in mole/mL.
With `CC[C@H](C)[C@@H]([C@@H](CC(=O)N1CCC[C@H]1[C@H](OC)[C@@H](C)C(=O)N[C@H](C)[C@@H](O)c1ccccc1)OC)N(C)C(=O)[C@@H](NC(=O)[C@H](C(C)C)N(C)C(=O)O[C@H]1/C=C/CC[C@@](C)(C(=O)N[C@@H](CC(=O)O)C(=O)O)CC1)C(C)C` [Compound B] the “conversion to MMAE after reaction with Compound 111” value was “rapidly converted”. With `CC[C@@]1(O)C(=O)OCc2c1cc1n(c2=O)Cc2c-1nc1cc(F)c(C)c3c1c2[C@@H](NC(=O)O[C@H]1/C=C/CC[C@@](C)(C(=O)NCCOCCOCCOCCN(CCOCCOCCOCCC(=O)O)CCOCCOCCOCCC(=O)O)CC1)CC3` [Compound F] the “conversion to exatecan after reaction with Compound 111” value was “rapidly converted”.

Assay: LCMS analysis of drug release by tetrazines (TCO-MMAE Compound B)
Conditions: tetrazine 20 μM, Compound B 10 μM, PBS
Procedure: A solution of each tetrazine (20 μM final concentration) in PBS is mixed with TCO-MMAE Compound B (10 μM final concentration). The solution is mixed thoroughly and an aliquot removed at the appropriate time for analysis by LCMS.
With `Cc1nnc(-c2ncccn2)nn1` the “% Compound B consumed (1 h)” value was 100%. For `Cc1nnc(-c2cn(C)cn2)nn1`, the “% Compound B consumed (1 h)” value was 74%. With `Cc1nnc(-c2cocn2)nn1` the “% Compound B consumed (1 h)” value was 42%. In the case of `Cc1nnc(-c2ccc(C(F)(F)F)c(CN)c2)nn1`, the “% Compound B consumed (1 h)” value is reported as 100%. With `Cc1nnc(-c2ccc(CN)c(C(F)(F)F)c2)nn1` the “% Compound B consumed (1 h)” value was 100%. With `Cc1nnc(-c2ccccn2)nn1` the “% Compound B consumed (1 h)” value was 100%. With `Cc1nnc(-n2cccn2)nn1` the “% Compound B consumed (1 h)” value was 81%.
